Experimental findings from patent US20210094971A1, “HETEROCYCLIC COMPOUNDS” (Hoffmann-La Roche Inc., priority 2019, published 2021) are described below.

This test deals with T1, MAGL (Homo sapiens, UniProt Q99685).
T1 sequence (Q99685 1-303): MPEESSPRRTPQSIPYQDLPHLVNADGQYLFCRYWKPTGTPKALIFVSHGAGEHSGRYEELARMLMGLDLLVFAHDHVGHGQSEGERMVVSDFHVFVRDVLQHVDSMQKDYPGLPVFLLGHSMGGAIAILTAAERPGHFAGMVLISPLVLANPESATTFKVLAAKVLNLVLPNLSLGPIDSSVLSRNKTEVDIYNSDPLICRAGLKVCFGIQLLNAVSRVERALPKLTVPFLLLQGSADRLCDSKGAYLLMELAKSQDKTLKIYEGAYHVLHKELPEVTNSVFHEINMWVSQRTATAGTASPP
The test is described as follows: 2-AG assay (MAGL inhibitory activity, hydrolysis of 2-arachidonoylglycerol followed by mass spectrometry). It is filed as biochemical. Conditions: 50 pM MAGL, 8 μM 2-arachidonoylglycerol, 15 min pre-incubation, 30 min incubation at RT. On the procedure: Compounds were profiled for MAGL inhibitory activity by determining the enzymatic activity by following the hydrolysis of the natural substrate 2-arachidonoylglycerol resulting in arachidonic acid, which can be followed by mass spectrometry. This assay is hereinafter abbreviated “2-AG assay”.
The 2-AG assay was carried out in 384 well assay plates (PP, Greiner Cat# 784201) in a total volume of 20 μL. Compound dilutions were made in 100% DMSO (VWR Chemicals 23500.297) in a polypropylene plate in 3-fold dilution steps to give a final concentration range in the assay from 12.5 μM to 0.8 pM. 0.25 μL compound dilutions (100% DMSO) were added to 9 μL MAGL in assay buffer (50 mM TRIS (GIBCO, 15567-027), 1 mM EDTA (Fluka, 03690-100 ml), 0.01% (v/v) Tween. After shaking, the plate was incubated for 15 min at RT. To start the reaction, 10 μL 2-arachidonoylglycerol in assay buffer was added. The final concentrations in the assay was 50 pM MAGL and 8 μM 2-arachidonoylglyerol. After shaking and 30 min incubation at RT, the reaction was quenched by the addition of 40 μL of acetonitrile containing 4 μM of d8-arachidonic acid. The amount of arachidonic acid was traced by an online SPE system (Agilent Rapidfire) coupled to a triple quadrupole mass spectrometer (Agilent 6460). A C18 SPE cartridge (G9205A) was used in an acetonitrile/water liquid setup. The mass spectrometer was operated in negative electrospray mode following the mass transitions 303.1→259.1 for arachidonic acid and 311.1→267.0 for d8-arachidonic acid. The activity of the compounds was calculated based on the ratio of intensities [arachidonic acid/d8-arachidonic acid].
`O=C1CO[C@H]2CCN(C(=O)N3C[C@@H]4[C@@H](COc5ccc(C(F)(F)F)cc5F)[C@@H]4C3)C[C@H]2N1` [Example 25, (4aR,8aS)-6-[(1R,5S,6r)-6-[[2-fluoro-4-(trifluoromethyl)phenoxy]methyl]-3-azabicyclo[3.1.0]hexane-3-carbonyl]-4,4a,5,7,8,8a-hexahydropyrido[4,3-b][1,4]oxazin-3-one]: the IC50 stood at 32 nM. `O=C1CO[C@H]2CCN(C(=O)N3C4CCC3CC(COc3ccc(F)cc3Cl)C4)C[C@H]2N1` (stereo partly drawn) [Example 26, (4aR,8aS)-6-[3-[(2-chloro-4-fluoro-phenoxy)methyl]-8-azabicyclo[3.2.1]octane-8-carbonyl]-4,4a,5,7,8,8a-hexahydropyrido[4,3-b][1,4]oxazin-3-one]: the IC50 amounted to 3690 nM. On to `O=C1CO[C@@H]2CCN(C(=O)N3CC4CCC(C3)C4COc3ccc(F)cc3Cl)C[C@@H]2N1` (stereo partly drawn) [Example 27, (4aS,8aR)-6-[8-[(2-chloro-4-fluoro-phenox)methyl]-3-azabicyclo[3.2.1]octane-3-carbonyl]-4,4a,5,7,8,8a-hexahydropyrido[4,3-b][1,4]oxazin-3-one], for which the concentration for half-maximal inhibition (IC50) is 670 nM. “(4aR,8aS)-6-[rel-(1R,4R,5S)-5- [(5-chloro-4-cyclopropyl-2- pyridyl)methoxy]-2- azabicyclo[2.2.1]heptane-2- carbonyl]-4,4a,5,7,8,8a- hexahydropyrido[4,3- b][1,4]oxazin-3-one [Example 10]” yielded an IC50 of 16.2 nM. “(4aR,8aS)-6-[rel-(1R,4R,5S)-5- [(5-chloro-4-cyclopropyl-2- pyridyl)methoxy]-2- azabicyclo[2.2.1]heptane-2- carbonyl]-4,4a,5,7,8,8a- hexahydropyrido[4,3- b][l,4]oxazin-3-one [Example 11]” yielded an IC50 of 82.5 nM.

Molecule “(4aR,8aS)-6-[rel-(1R,4R,5S)-5- [[2-fluoro-4- (trifluoromethyl)phenyl]methoxy]- 2-azabicyclo[2.2.1]heptane-2- carbonyl]-4,4a,5,7,8,8a- hexahydropyrido[4,3- b][1,4]oxazin-3-one [Example 20]” yielded an IC50 of 9.7 nM. On to “(4aR,8aS)-6-[rel-(1R,4R,5S)-5- [[2-fluoro-4- (trifluoromethyl)phenyl]methoxy]- 2-azabicyclo[2.2.1]heptane-2- carbonyl]-4,4a,5,7,8,8a- hexahydropyrido[4,3- b][1,4]oxazin-3-one [Example 21]”, for which the IC50 turned out to be 18.6 nM.

By IC50 is commonly meant the point on the concentration scale where inhibition reaches its midpoint. Lower therefore signals inhibition by little substance.
